What was measured:
[1] = in vitro
[2] = system: EBOV-GP-pseudotyped virus (pEBOV); assay: microbe, parasite or virus in culture; details: for inhibition at 10 µM: Zaire ebolavirus, Vero C1008, read-out: %inh@10 μM (pEBOV); for EC50: Vesicular stomatitis virus, Vero C1008, 24 h, read-out: EC50 (pEBOV)
[3] = system: wild-type Zaire EBOV Mayinga 1976 strain (EBOV May); assay: microbe, parasite or virus in culture; details: Zaire ebolavirus, Vero C1008, 72 h, read-out: EC50 (EBOV May)
[4] = system: VSV-G-pseudotype virus (pVSV-G); assay: microbe, parasite or virus in culture; assay type: cell-based; details: Vesicular stomatitis virus, read-out: %inh@10µM (pVSV-G)
[5] = system: wild-type Zaire EBOV Mayinga 1976 strain (EBOV May)
[6] = system: EBOV-GP-pseudotyped virus (pEBOV)

| SMILES | CC50 ([1]; chlorocebus sabaeus) [µM] | inhibition at 10 µM [2] [%] | EC50 [3] [µM] | inhibition at 10 µM [4] [%] | CC50 at 24 h ([1]; chlorocebus sabaeus) [µM] | other results |
| --- | --- | --- | --- | --- | --- | --- |
| O=C(Nc1cccc(Cl)c1)c1ccc(-c2ccc(O)cc2)s1 [compound 29] | > 200 | 27 | – | – | – | – |
| O=C(NCCC1CCN(Cc2ccccc2)CC1)c1cnc(-c2ccc(OC3CCNCC3)cc2)s1 [compound 79, N-(2-(1-Benzylpiperidin-4-yl)ethyl)-2-(4-(piperidin-4-yloxy)phenyl)thiazole-5-carboxamide] | > 100 | – | 7.83 | 39 | – | SI (CC50/EC50) [5]: 12.8; SI (CC50/EC50) [6]: 12; EC50 [2]: 8.3 µM |
| O=C(Nc1ccccc1)c1ccc(-c2ccccc2OC2CCN(Cc3ccccc3)CC2)s1 [compound 64] | > 200 | 27 | – | – | – | antiviral activity against pEBOV (in words) [6]: lacked activity |
| O=C(Nc1ccccc1)c1ccc(-c2ccccc2O)s1 [compound 16] | > 100 | -36 | – | – | – | – |
| O=C(Nc1ccc(Cl)cc1)c1ccc(-c2ccccc2OC2CCNCC2)s1 [compound 47, N-(4-Chlorophenyl)-5-(2-(piperidin-4-yloxy)phenyl)thiophene-2-carboxamide] | – | – | 1.55 | -117 | 27.9 | SI (CC50/EC50) [5]: 18; SI (CC50/EC50) [6]: 3.32; EC50 [2]: 8.4 µM |
| O=C(c1ccc(-c2ccccc2O)s1)N1CCCC1 [compound 22] | > 200 | 0 | – | – | – | – |
| O=C(Nc1ccc(Cl)cc1)c1ccc(-c2ccccc2)s1 [compound 3] | > 100 | < 75 | – | – | – | – |
| O=C(NCCc1ccccc1)c1ccc(-c2cccc(OC3CCNCC3)c2)s1 [compound 56, N-Phenethyl-5-(3-(piperidin-4-yloxy)phenyl)thiophene-2-carboxamide] | – | – | 4.93 | -182 | 10 | SI (CC50/EC50) [5]: 2.0; SI (CC50/EC50) [6]: 1.98; EC50 [2]: 5.03 µM |
| O=C(Nc1cccc(Cl)c1)c1ccc(-c2ccccc2O)s1 [compound 18] | > 100 | -35 | – | – | – | – |
| O=C(NCCC1CCN(Cc2ccccc2)CC1)c1ccc(-c2ccccc2)s1 [compound 7] | > 100 | < 75 | – | – | – | – |
| O=C(NCCC1CCN(Cc2ccccc2)CC1)c1ccc(-c2ccccc2O)s1 [compound 21] | – | -22 | – | – | 70 | – |
| O=C(Nc1ccc(Cl)cc1)c1ccc(-c2ccccc2OC2CCNCC2)o1 [compound 99, N-(4-Chlorophenyl)-5-(2-(piperidin-4-yloxy)phenyl)furan-2-carboxamide] | – | – | 2.53 | 10 | 20 | SI (CC50/EC50) [5]: 7.9; SI (CC50/EC50) [6]: 3.1; EC50 [2]: 6.35 µM |
| O=C(Nc1ccccc1)c1ccc(-c2cccc(OC3CCNCC3)c2)o1 [compound 103, N-Phenyl-5-(3-(piperidin-4-yloxy)phenyl)furan-2-carboxamide] | – | – | 9.26 | -18 | 14.1 | SI (CC50/EC50) [5]: 1.5; SI (CC50/EC50) [6]: 1.7; EC50 [2]: 8.27 µM |
| O=C(NCCc1ccccc1)c1ccc(-c2ccccc2OC2CCNCC2)o1 [compound 102, N-Phenethyl-5-(2-(piperidin-4-yloxy)phenyl)furan-2-carboxamide] | – | – | 6.19 | -23 | 27.6 | SI (CC50/EC50) [5]: 4.5; SI (CC50/EC50) [6]: 12.77; EC50 [2]: 2.16 µM |
| O=C(Nc1ccc(Cl)cc1)c1ccc(-c2ccc(OC3CCNCC3)cc2)s1 [compound 58, N-(4-Chlorophenyl)-5-(4-(piperidin-4-yloxy)phenyl)thiophene-2-carboxamide] | – | – | 2.42 | -12 | 10 | SI (CC50/EC50) [5]: 4.13; SI (CC50/EC50) [6]: 1.39; EC50 [2]: 7.18 µM |
| O=C(NCCC1CCN(Cc2ccccc2)CC1)c1ccc(-c2ccccc2OC2CCNCC2)o1 [compound 101, N-(2-(1-Benzylpiperidin-4-yl)ethyl)-5-(2-(piperidin-4-yloxy)phenyl)furan-2-carboxamide] | – | – | 9.5 | 39 | 90 | SI (CC50/EC50) [5]: 9.5; SI (CC50/EC50) [6]: 18.7; EC50 [2]: 4.81 µM |
| O=C(Nc1cccc(Cl)c1)c1ccc(-c2ccccc2OC2CCNCC2)s1 [compound 48, N-(3-Chlorophenyl)-5-(2-(piperidin-4-yloxy)phenyl)thiophene-2-carboxamide] | – | – | 1.3 | – | 22.3 | SI (CC50/EC50) [5]: 17.1; SI (CC50/EC50) [6]: 4.8; EC50 [2]: 4.65 µM |
| O=C(Nc1ccccc1)c1ccc(-c2ccccc2OC2CCNCC2)o1 [compound 100, N-Phenyl-5-(2-(piperidin-4-yloxy)phenyl)furan-2-carboxamide] | – | – | – | 32 | 79 | SI (CC50/EC50) [6]: 3.8; EC50 [2]: 20.7 µM |
| O=C(NCCc1ccccc1)c1ccc(-c2ccc(OC3CCNCC3)cc2)s1 [compound 60, N-Phenethyl-5-(4-(piperidin-4-yloxy)phenyl)thiophene-2-carboxamide] | – | -8 | – | -12 | 10 | antiviral activity against pEBOV (in words) [6]: completely inactive |
| O=C(Nc1cccc(Cl)c1)c1ccc(-c2cccc(OC3CCNCC3)c2)s1 [compound 55, N-(3-Chlorophenyl)-5-(3-(piperidin-4-yloxy)phenyl)thiophene-2-carboxamide] | – | – | 1.86 | -4 | 15 | SI (CC50/EC50) [5]: 8.0; EC50 [2]: 7.5 µM |

| SMILES | CC50 ([1]; chlorocebus sabaeus) [µM] | inhibition at 10 µM [2] [%] | EC50 [3] [µM] | inhibition at 10 µM [4] [%] | CC50 at 24 h ([1]; chlorocebus sabaeus) [µM] | other results |
| --- | --- | --- | --- | --- | --- | --- |
| O=C(c1ccc(-c2ccccc2OC2CCNCC2)s1)N1CCCC1 [compound 52, (5-(2-(Piperidin-4-yloxy)phenyl)thiophen-2-yl)(pyrrolidin-1-yl)methanone] | > 100 | -116 | – | -108 | – | antiviral activity against pEBOV (in words) [6]: completely inactive |
| O=C(Nc1ccccc1)c1ccc(-c2ccccc2)s1 [compound 2] | > 100 | < 75 | – | – | – | – |
| CC(C)(C)OC(=O)N1CCC(Oc2ccccc2-c2ccc(C(=O)Nc3cccc(Cl)c3)s2)CC1 [compound 34, tert-butyl 4-(2-(5-((3-chlorophenyl)carbamoyl)thiophen-2-yl)phenoxy)piperidine-1-carboxylate] | > 100 | -36 | – | – | – | antiviral activity against pEBOV (in words) [6]: complete loss of activity |
| O=C(NCCc1ccccc1)c1ccc(-c2ccc(O)cc2)s1 [compound 30] | > 200 | -63 | – | – | – | – |
| O=C(Nc1ccc(Cl)cc1)c1ccc(-c2ccccc2O)s1 [compound 17] | > 100 | -19 | – | – | – | – |
| O=C(Nc1ccc(Cl)cc1)c1ccc(-c2ccc(O)cc2)s1 [compound 28] | > 200 | 46 | – | – | – | – |
| O=C(NCCc1ccccc1)c1ccc(-c2ccccc2O)s1 [compound 19] | > 100 | -22 | – | – | – | – |
| O=C(Nc1cccc(Cl)c1)c1ccc(-c2ccccc2)s1 [compound 4] | > 100 | < 75 | > 100 | – | – | – |
| O=C(Nc1ccc(N2CCOCC2)cc1)c1ccc(-c2ccccc2O)s1 [compound 20] | > 100 | -23 | – | – | – | – |
| O=C(NCCc1ccccc1)c1ccc(-c2cccc(O)c2)s1 [compound 26] | > 200 | 10 | – | – | – | – |
| O=C(Nc1ccccc1)c1cnc(-c2ccc(OC3CCNCC3)cc2)s1 [compound 78, N-Phenyl-2-(4-(piperidin-4-yloxy)phenyl)thiazole-5-carboxamide] | – | -96 | – | -32 | 50 | – |
| O=C(Nc1ccccc1)c1cnc(-c2cccc(OC3CCNCC3)c2)s1 [compound 98, N-Phenyl-2-(3-(piperidin-4-yloxy)phenyl)thiazole-5-carboxamide] | – | -8 | – | -18 | – | – |
| O=C(NCCC1CCN(Cc2ccccc2)CC1)c1ccc(-c2ccc(OC3CCNCC3)cc2)s1 [compound 63, N-(2-(1-Benzylpiperidin-4-yl)ethyl)-5-(4-(piperidin-4-yloxy)phenyl)thiophene-2-carboxamide] | > 100 | 58 | – | 12 | – | antiviral activity against pEBOV (in words) [6]: completely inactive |
| CC(C)(C)OC(=O)N1CCC(Oc2cccc(-c3ccc(C(=O)Nc4ccccc4)s3)c2)CC1 [compound 39, tert-butyl 4-(3-(5-(phenylcarbamoyl)thiophen-2-yl)phenoxy)piperidine-1-carboxylate] | – | 38 | – | – | – | antiviral activity against pEBOV (in words) [6]: complete loss of activity |
| O=C(Nc1ccc(N2CCOCC2)cc1)c1ccc(-c2ccccc2)s1 [compound 6] | > 100 | < 75 | – | – | – | – |
| O=C(Nc1ccc(Cl)cc1)c1ccc(-c2cccc(O)c2)s1 [compound 24] | > 200 | 16 | – | – | – | – |
| O=C(NCCc1ccccc1)c1ccc(-c2ccccc2)s1 [compound 5] | > 100 | < 75 | > 100 | – | – | CC50 ([1]; African green monkey): 100 µM |
| O=C(c1ccc(-c2ccccc2)s1)N1CCCC1 [compound 8] | > 100 | < 75 | – | – | – | – |
| O=C(Nc1cccc(Cl)c1)c1ccc(-c2cccc(O)c2)s1 [compound 25] | > 200 | -20 | – | – | – | – |
| O=C(NCCC1CCN(Cc2ccccc2)CC1)c1ccc(-c2ccc(O)cc2)s1 [compound 31] | > 100 | 41 | – | – | – | – |
